Reference: patent publication US20100076006A1, “Topiramate Plus Naltrexone for the Treatment of Addictive Disorders” (UNIVERSITY OF VIRGINIA PATENT FOUNDATION, priority 2007, published 2010)
Structures can show the parent of a compound that is named as a salt.

Experiments:
[1] = system: rhesus monkeys; assay: Naltrexone's effects on alcohol drinking in non-human primates, fixed ratio schedule of reinforcement; assay type: in vivo; details: three non food deprived rhesus monkeys, 3 hour sessions, naltrexone 0.1, 0.3, 1.0, 3.0 g/kg, water concurrently available
Description: FIG. 3 graphically illustrates the effects of Naltrexone on alcohol consumption in non-human primates (rhesus monkeys). Naltrexone was administered at 0.1 (∘), 0.3 ([…]), 1.0 (□) or 3.0 (▪) […]. The ordinate represents cumulative deliveries as percent change from baseline. The abscissa represents time in 10 minute blocks.
This study was principally conducted as a collaboration with Richard Meisch and Alan Boyle. […] During these 3 hour sessions, both water and alcohol were concurrently available.

[2] = system: alcohol-preferring (P) rats; assay: Combined topiramate and naltrexone on alcohol consumption in animal model; assay type: in vivo; details: 8 rats
Description: FIG. 8 graphically illustrates the combined effect of topiramate and naltrexone on alcohol consumption in alcohol-preferring (P) rats. Rats received either vehicle, topiramate at 5 mg/kg, topiramate at 10 mg/kg, naltrexone at 1/mg/kg and topiramate at 5 mg/kg, naltrexone at 1/mg/kg and topiramate at 10 mg/kg, or naltrexone at 1 mg/kg. Each data point represents the mean (±SE) of 8 rats as a change from baseline.
No significant differences were observed following vehicle injection. Data are plotted as change from baseline consumption, and each data point represents a mean (±SE) of 8 rats.

[3] = system: alcoholism treatment; details: medication alone; cited from earlier work
[4] = system: EOA and LOA alcoholics; details: ondansetron 1, 4, 16 μg/kg twice daily (particularly 4 μg/kg), compared with LOA; cited from earlier work
[5] = system: alcohol dependence; details: topiramate up to 300 mg per day, 12 weeks, vs. placebo; cited from earlier work

SMILES | alcohol consumption (8% w/v) [1] | alcohol consumption, change from baseline ([2]; naltrexone alone, 1 mg/kg intraperitoneally) | typical effect sizes [3] | drinking [4] | alcohol consumption, change from baseline ([2]; topiramate alone, 10 mg/kg intraperitoneally, effect not yet significant) | craving [5] | days of abstinence [5] | drinks per day, drinking days, and drinks per drinking day [5]
O=C1CC[C@@]2(O)[C@H]3Cc4ccc(O)c5c4[C@@]2(CCN3CC2CC2)[C@H]1O5 [naltrexone, 17-(Cyclopropylmethyl)-4,5a-epoxy-3,14-dihydroxymorphinan-6-one hydrochloride] | dose-dependent decreases | did not affect alcohol consumption | 0.2±0.5 |  |  |  |  | 
Cc1nccn1CC1CCc2c(c3ccccc3n2C)C1=O (stereo not drawn) [ondansetron, 9-methyl-3-[(2-methyl-1H-imidazol-1-yl)methyl]-1,2,3,9-tetrahydrocarbazol-4-one] |  |  | 0.2±0.5 | significant reductions |  |  |  | 
CC1(C)O[C@@H]2[C@@H](CO[C@@]3(COS(N)(=O)=O)OC(C)(C)O[C@@H]23)O1 [topiramate, 2,3:4,5-Bis-O-(1-methylethylidene)-beta-D-fructopyranose sulfamate] |  |  |  |  | only modestly decreased | significantly less | significantly more | significantly fewer
